Measured values reported in ChEMBL document CHEMBL6109094, “Anti-inflammatory agents design via the fragment hybrid strategy in the discovery of compound c1 for treating ALI and UC” (Eur J Med Chem, 2025).
Activity calls are given as the source filed them. The calls are words filed in the database; no cut-off is given here.

These compounds were tested against T1, Tyrosine-protein kinase JAK3 (Homo sapiens, UniProt P52333) (assay: Inhibition of JAK3 (unknown origin)). Details: not given.
T1 sequence (P52333 whole entry): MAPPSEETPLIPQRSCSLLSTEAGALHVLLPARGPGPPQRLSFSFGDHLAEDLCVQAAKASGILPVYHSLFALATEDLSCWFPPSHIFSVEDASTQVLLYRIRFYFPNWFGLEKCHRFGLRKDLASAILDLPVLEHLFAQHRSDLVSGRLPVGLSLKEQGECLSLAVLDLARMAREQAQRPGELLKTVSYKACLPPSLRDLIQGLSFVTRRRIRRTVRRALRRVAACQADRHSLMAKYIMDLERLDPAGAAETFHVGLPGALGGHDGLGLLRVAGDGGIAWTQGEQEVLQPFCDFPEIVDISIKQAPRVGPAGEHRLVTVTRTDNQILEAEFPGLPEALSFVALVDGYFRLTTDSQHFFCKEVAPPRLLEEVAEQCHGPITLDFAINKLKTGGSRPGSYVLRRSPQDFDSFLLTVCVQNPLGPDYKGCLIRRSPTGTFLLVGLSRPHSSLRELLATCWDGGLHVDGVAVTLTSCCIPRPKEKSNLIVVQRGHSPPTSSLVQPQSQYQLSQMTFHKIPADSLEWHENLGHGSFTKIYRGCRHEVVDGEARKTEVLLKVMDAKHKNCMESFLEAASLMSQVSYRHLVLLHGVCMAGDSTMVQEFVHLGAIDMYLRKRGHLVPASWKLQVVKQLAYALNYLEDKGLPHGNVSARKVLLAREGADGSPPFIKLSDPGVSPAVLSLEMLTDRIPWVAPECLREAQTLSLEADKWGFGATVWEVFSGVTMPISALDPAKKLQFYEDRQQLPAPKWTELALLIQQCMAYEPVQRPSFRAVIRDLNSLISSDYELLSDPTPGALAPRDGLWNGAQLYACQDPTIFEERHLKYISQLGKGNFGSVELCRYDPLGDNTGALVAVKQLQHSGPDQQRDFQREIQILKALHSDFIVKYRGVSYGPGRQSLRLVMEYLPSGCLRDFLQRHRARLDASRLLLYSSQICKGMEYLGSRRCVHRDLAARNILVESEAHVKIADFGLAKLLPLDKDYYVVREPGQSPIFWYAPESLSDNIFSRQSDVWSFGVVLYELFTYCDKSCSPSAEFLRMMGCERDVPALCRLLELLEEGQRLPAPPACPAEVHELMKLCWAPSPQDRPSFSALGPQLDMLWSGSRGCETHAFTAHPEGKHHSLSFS

IC50 [µM] | Structure (SMILES)
2.5 | COc1cc2ncnc(Nc3cc(Br)c(O)c(Br)c3)c2cc1OC

The compounds below were run on RAW264.7 (assay: Anti-inflammatory activity in mouse RAW264.7 cells assessed as inhibition of LPS-induced IL-6 level at 10 uM preincubated for 30 mins followed by LPS addition measured after 24 hrs by ELISA relative to control). Details: time 24.5 hrs.
Format: functional

Structure (SMILES) | inhibition at 10 µM [%] | inhibition
COc1cc2ncnc(O[C@H]3CC[C@@H](NC(=O)CN4CCNCC4)CC3)c2cc1O | 37.1 | 
COc1cc2ncnc(O[C@H]3CC[C@@H](NCC4CCCN(C(=O)OC(C)(C)C)C4)CC3)c2cc1O (some centres not stated) | 68.7 | 
COc1cc2ncnc(O[C@H]3CC[C@@H](NCCN4CCNCC4)CC3)c2cc1O | 46.5 | 
COc1cc2ncnc(O[C@H]3CC[C@@H](NCCN4CCN(C(=O)OC(C)(C)C)CC4)CC3)c2cc1OCc1ccccc1 | 58.1 | 
COc1cc2c(O[C@H]3CC[C@@H](N)CC3)ncnc2cc1OCc1ccccc1Br | 33.2 | 
COc1cc2ncnc(O[C@H]3CC[C@@H](NC(=O)CN4CCN(C(=O)OC(C)(C)C)CC4)CC3)c2cc1O | 11.8 | 
COc1cc2ncnc(O[C@H]3CC[C@@H](NCCN4CCN(C(=O)OC(C)(C)C)CC4)CC3)c2cc1OC | 10.8 | 
COc1cc2ncnc(O[C@H]3CC[C@@H](NC(=O)CCN4CCNCC4)CC3)c2cc1O | 9.85 | 
Clc1ccc2c(O[C@H]3CC[C@@H](NCCN4CCNCC4)CC3)ncnc2c1 | 58.9 | 
COc1cc2c(O[C@H]3CC[C@@H](NCCN4CCNCC4)CC3)ncnc2cc1OCc1ccccc1 | 74.2 | 
COc1cc2c(O[C@H]3CC[C@@H](NCCN4CCNCC4)CC3)ncnc2cc1O | 58.4 | 
COc1cc2ncnc(O[C@H]3CC[C@@H](NCCN4CCN(C(C)=O)CC4)CC3)c2cc1O | 66.1 | 
COc1cc2c(O[C@H]3CC[C@@H](N)CC3)ncnc2cc1OCc1cccc(C)c1 | 89.5 | 
COc1cc2c(O[C@H]3CC[C@@H](NCCN4CCN(C(=O)OC(C)(C)C)CC4)CC3)ncnc2cc1O | 53.6 | 
COc1cc2ncnc(O[C@H]3CC[C@@H](NCCN4CCNCC4)CC3)c2cc1OCc1ccccc1 | 62.7 | 
COc1cc2c(O[C@H]3CC[C@@H](N)CC3)ncnc2cc1OCc1ccc(Br)cc1 |  | inactive
COc1cc2c(O[C@H]3CC[C@@H](N)CC3)ncnc2cc1OCc1cccc([N+](=O)[O-])c1 | 75.2 | 
COc1cc2c(O[C@H]3CC[C@@H](N)CC3)ncnc2cc1OCc1ccc(C)cc1 | 87.2 | 
COc1cc2c(O[C@H]3CC[C@@H](N)CC3)ncnc2cc1OCc1ccccc1[N+](=O)[O-] | 30.6 | 
COc1cc2c(O[C@H]3CC[C@@H](NCCN4CCN(C(=O)OC(C)(C)C)CC4)CC3)ncnc2cc1OCc1ccccc1 |  | inactive
COc1cc2ncnc(O[C@H]3CC[C@@H](NC(=O)CCN4CCN(C(=O)OC(C)(C)C)CC4)CC3)c2cc1O | 17.5 | 
COc1cc2ncnc(O[C@H]3CC[C@@H](NCC4CCCNC4)CC3)c2cc1O (some centres not stated) |  | inactive
CC(C)(C)OC(=O)N1CCN(CCN[C@H]2CC[C@@H](Oc3ncnc4cc(Cl)ccc34)CC2)CC1 | 68.7 | 
COc1cc2ncnc(O[C@H]3CC[C@@H](NCCCN4CCN(C)CC4)CC3)c2cc1O | 4.51 | 
COc1cc2c(O[C@H]3CC[C@@H](N)CC3)ncnc2cc1OCc1ccc([N+](=O)[O-])cc1 | 86.6 | 
COc1cc2ncnc(O[C@H]3CC[C@@H](NCCN4CCN(C(=O)OC(C)(C)C)CC4)CC3)c2cc1O | 59.4 | 
COc1cc2ncnc(O[C@H]3CC[C@@H](NCCN4CCNCC4)CC3)c2cc1OC |  | inactive

The compounds below were run on RAW264.7 (assay: cells). Details: Mus musculus.
Description: Anti-inflammatory activity in mouse RAW264.7 cells assessed as inhibition of LPS-induced IL-6 level preincubated for 30 mins followed by LPS addition measured after 24 hrs by ELISA

Structure (SMILES) | IC50 [µM]
COc1cc2c(O[C@H]3CC[C@@H](NCCN4CCNCC4)CC3)ncnc2cc1OCc1ccccc1 | 3.55
COc1cc2c(O[C@H]3CC[C@@H](N)CC3)ncnc2cc1OCc1cccc(C)c1 | 0.6
COc1cc2c(O[C@H]3CC[C@@H](N)CC3)ncnc2cc1OCc1ccc(C)cc1 | 1.59
COc1cc2c(O[C@H]3CC[C@@H](N)CC3)ncnc2cc1OCc1ccc([N+](=O)[O-])cc1 | 0.65
